From ChEMBL document CHEMBL3885861, “Open TG-GATES”

Species: Rattus norvegicus
Assay: Open TG-GATES - Regimen: Single
Type: toxicity, organism-based, Sprague-Dawley
Set-up: regimen Single, gender Male, age 6 weeks
Details: in vivo, po, 15 mg/kg, route gavage, dose level Low; for APTT / Bas / Eos / Fbg / Hb / Ht / Lym / MCH / MCHC / MCV / Mono / Neu / PT / Plat / RBC / Ret / WBC: tissue Blood; for KIDNEY_L / KIDNEY_R / KIDNEY_TOTAL: tissue Kidney; for LIVER: tissue Liver; for A/G / ALP / ALT / AST / BUN / CRE / Ca / Cl / DBIL / GLC / IP / K / LDH / Na / PL / RALB / TBIL / TC / TG / TP / gamma-GTP: tissue Plasma

Structure (SMILES): S=C=Nc1cccc2ccccc12 [1-NAPHTHYLISOTHIOCYANATE]
- TERMINAL_BW (9 h): 215.5 g
- APTT (9 h): 18 s
- Bas (9 h): 0.2%
- Eos (9 h): 0.8%
- Fbg (9 h): 237 mg/dL
- Hb (9 h): 13.6 g/dL
- Ht (9 h): 38.1%
- Lym (9 h): 74.8%
- MCH (9 h): 21.5 pg
- MCHC (9 h): 35.6%
- MCV (9 h): 60.5 fL
- Mono (9 h): 2.4%
- Neu (9 h): 20.8%
- PT (9 h): 12.1 s
- Plat (9 h): 122.9 x10_4/uL
- RBC (9 h): 631.6 x10_4/ul
- Ret (9 h): 7.1%
- WBC (9 h): 92.1 x10_2/uL
- KIDNEY_L (9 h): 1 g
- KIDNEY_R (9 h): 0.9 g
- KIDNEY_TOTAL (9 h): 1.9 g
- LIVER (9 h): 8.7 g
- A/G (9 h): 1.7
- ALP (9 h): 1018.2 IU/L
- ALT (9 h): 35.8 IU/L
- AST (9 h): 72 IU/L
- BUN (9 h): 10.4 mg/dL
- CRE (9 h): 0.4 mg/dL
- Ca (9 h): 10.4 mg/dL
- Cl (9 h): 104 meq/L
- DBIL (9 h): 0.092 mg/dL
- GLC (9 h): 223 mg/dL
- IP (9 h): 10.1 mg/dL
- K (9 h): 3.8 meq/L
- LDH (9 h): 157.4 IU/L
- Na (9 h): 142.2 meq/L
- PL (9 h): 134.2 mg/dL
- RALB (9 h): 3.6 g/dL
- TBIL (9 h): 0.1 mg/dL
- TC (9 h): 73.2 mg/dL
- TG (9 h): 34.8 mg/dL
- TP (9 h): 5.7 g/dL
- gamma-GTP (9 h): 1 IU/L
- TERMINAL_BW (24 h): 232.5 g
- APTT (24 h): 17.6 s
- Bas (24 h): 0.4%
- Eos (24 h): 0.8%
- Fbg (24 h): 217.8 mg/dL
- Hb (24 h): 13.9 g/dL
- Ht (24 h): 38.5%
- Lym (24 h): 80%
- MCH (24 h): 21.9 pg
- MCHC (24 h): 36%
- MCV (24 h): 60.8 fL
- Mono (24 h): 2%
- Neu (24 h): 16%
- PT (24 h): 11.9 s
- Plat (24 h): 122.9 x10_4/uL
- RBC (24 h): 633.6 x10_4/ul
- Ret (24 h): 6.5%
- WBC (24 h): 106 x10_2/uL
- KIDNEY_L (24 h): 1 g
- KIDNEY_R (24 h): 1 g
- KIDNEY_TOTAL (24 h): 2 g
- LIVER (24 h): 10.3 g
- A/G (24 h): 1.6
- ALP (24 h): 1064.4 IU/L
- ALT (24 h): 39.8 IU/L
- AST (24 h): 73.6 IU/L
- BUN (24 h): 15.6 mg/dL
- CRE (24 h): 0.4 mg/dL
- Ca (24 h): 10.6 mg/dL
- Cl (24 h): 103.8 meq/L
- DBIL (24 h): 0.068 mg/dL
- GLC (24 h): 198 mg/dL
- IP (24 h): 7.3 mg/dL
- K (24 h): 3.8 meq/L
- LDH (24 h): 209.4 IU/L
- Na (24 h): 141.6 meq/L
- PL (24 h): 131 mg/dL
- RALB (24 h): 3.4 g/dL
- TBIL (24 h): 0.1 mg/dL
- TC (24 h): 67.4 mg/dL
- TG (24 h): 84.2 mg/dL
- TP (24 h): 5.5 g/dL
- gamma-GTP (24 h): 1.6 IU/L
